The results in this text go back to ChEMBL document CHEMBL4706534, “1,2,3-Triazole-containing hybrids with potential antibacterial activity against methicillin-resistant Staphylococcus aureus (MRSA)” (Eur J Med Chem, 2020).

For data set [1], the system named is Staphylococcus aureus. Put plainly: Antibacterial activity against wild type Methicillin-resistant Staphylococcus aureus by CLSI-based microdilution method. It counts as functional. Background: Dilution methods test growth across graded concentrations, often in twofold steps.
For data set [2], the system named is Staphylococcus aureus. Kind of data set: Antibacterial activity against Methicillin-resistant Staphylococcus aureus USA300 by CLSI-based microdilution method. It counts as functional.
Data set [3] has as its system Staphylococcus aureus. Put plainly: Antibacterial activity against Methicillin-resistant Staphylococcus aureus USA100 by CLSI-based microdilution method. The class given is functional.
Data set [4] has as its system Staphylococcus aureus. Kind of data set: Antibacterial activity against Methicillin-resistant Staphylococcus aureus USA600 by CLSI-based microdilution method. It counts as functional.
For data set [5], the system named is Staphylococcus aureus. Kind of data set: Antibacterial activity against Methicillin-resistant Staphylococcus aureus USA200 by CLSI-based microdilution method. The class given is functional.
In data set [6] the test system is Staphylococcus aureus. Kind of data set: Potency index, ratio of linezolid MIC to compound MIC for antibacterial activity against methicillin-resistant Staphylococcus aureus ATCC 33591. The class given is functional.
The subject of data set [7] is Staphylococcus aureus. Kind of data set: Antibacterial activity against methicillin-resistant Staphylococcus aureus ATCC 33591 incubated for 18 hrs. It counts as functional.
Data set [8] relates to Staphylococcus aureus. Put plainly: Antibacterial activity against methicillin-susceptible Staphylococcus aureus ATCC 25923 incubated for 18 hrs. It counts as functional.
A further data set relates to Klebsiella pneumoniae. Put plainly: Antibacterial activity against Klebsiella pneumoniae. It counts as functional.
In a further data set the test system is Klebsiella aerogenes. Kind of data set: Antibacterial activity against Enterobacter aerogenes. The class given is functional.
The test system of a further data set is Enterococcus faecium. Put plainly: Antibacterial activity against Enterococcus faecium. The class given is functional.
The subject of another data set is Proteus vulgaris. Kind of data set: Antibacterial activity against Proteus vulgaris. The class given is functional.
In data set [9] the test system is Staphylococcus aureus. Put plainly: Antibacterial activity against methicillin-sensitive Staphylococcus aureus. It counts as functional.
Data set [10] has as its system Staphylococcus aureus. Kind of data set: Antibacterial activity against methicillin-resistant Staphylococcus aureus. The class given is functional.
For data set [11], the system named is Staphylococcus epidermidis. Put plainly: Antibacterial activity against methicillin-sensitive Staphylococcus epidermidis. It counts as functional.
Another data set concerns Providencia rettgeri. Put plainly: Antibacterial activity against Providencia rettgeri. The class given is functional.
A further data set has as its system Enterococcus faecalis. Kind of data set: Antibacterial activity against Enterococcus faecalis. The class given is functional.
The subject of a further data set is Enterobacter cloacae. Kind of data set: Antibacterial activity against Enterobacter cloacae. The class given is functional.
The nature of data set [12]: Cytotoxicity against CHO cells. As to conditions: chinese hamster. The class given is cell-based, Cricetulus griseus.
A further data set concerns Escherichia coli. Put plainly: Antibacterial activity against Escherichia coli. It counts as functional.
Data set [13] relates to Staphylococcus aureus. Kind of data set: Antibacterial activity against Methicillin-resistant Staphylococcus aureus ATCC 33591 incubated for 20 hrs by broth two-fold dilution method. The class given is functional.
In data set [14] the test system is Staphylococcus aureus. Put plainly: Bactericidal activity against methicillin-resistant Staphylococcus aureus ATCC 33591 measured after 20 hrs. It counts as functional.
Data set [15] relates to Staphylococcus aureus. Kind of data set: Antibacterial activity against Methicillin-resistant Staphylococcus aureus incubated for 24 hrs by broth microdilution method. The class given is functional.
The subject of data set [16] is Staphylococcus aureus. Kind of data set: Resistance index, ratio of MIC for antibacterial activity against Staphylococcus aureus ATCC 43300 incubated for 18 hrs to MIC for antibacterial activity against Staphylococcus aureus ATCC 25923 incubated for 18 hrs. It counts as functional.
Data set [17] relates to Staphylococcus aureus. Kind of data set: Antibacterial activity against methicillin-resistant Staphylococcus aureus ATCC 43300 incubated for 18 hrs. It counts as functional.
The test system of data set [18] is Staphylococcus aureus. Put plainly: Antibacterial activity against Methicillin-resistant Staphylococcus aureus 2 incubated for 16 hrs by agar dilution method. It counts as functional. (In general: Agar dilution tests growth on a series of plates holding different concentrations.)
The test system of data set [19] is Enterococcus. Kind of data set: Antibacterial activity against Vancomycin-resistant enterococcus 2 incubated for 16 hrs by agar dilution method. The class given is functional.
Data set [20] has as its system Enterococcus. Put plainly: Antibacterial activity against Vancomycin-resistant enterococcus 1 incubated for 16 hrs by agar dilution method. It counts as functional.
In data set [21] the test system is Staphylococcus aureus. Put plainly: Antibacterial activity against Methicillin-resistant Staphylococcus aureus 1 incubated for 16 hrs by agar dilution method. It counts as functional.

In brackets after ≈: the same amount, converted by molar mass.

`NC[C@@H]1O[C@H](O[C@H]2[C@@H](O)[C@H](O[C@@H]3[C@@H](O)[C@H](N)C[C@H](N)[C@H]3O[C@H]3O[C@H](CN)[C@@H](O)[C@H](O)[C@H]3N)O[C@@H]2CO)[C@H](N)[C@@H](O)[C@@H]1O` [FRAMYCETIN]: the MIC against Staphylococcus aureus [1], against Staphylococcus aureus [2], in the data set with Staphylococcus aureus [3], against Staphylococcus aureus [4] and against Staphylococcus aureus [5] was greater than 50 µg/mL each time.

Turning to `CC(=O)NC[C@H]1CN(c2ccc(-n3cc(-c4ccncn4)nn3)c(F)c2)C(=O)O1`, in the data set on Staphylococcus aureus [6], the Ratio was found to be 4. In addition, the MIC – broadly, the lowest concentration found to suppress growth – with Staphylococcus aureus [7] was 0.5 µg/mL (≈ 1.26 µM); in the data set with Staphylococcus aureus [8], 2 µg/mL (≈ 5.03 µM).

For the compound `CO/N=C1\C(=O)N(Cc2cn(CC(=O)N3CCC[C@H]4CN(c5c(F)cc6c(=O)c(C(=O)O)cn(C7CC7)c6c5OC)C[C@H]43)nn2)c2ccc(C)cc21`, the MIC in the data set with Klebsiella pneumoniae is no more than 0.03 µg/mL; against Klebsiella aerogenes, no more than 0.03 µg/mL; against Enterococcus faecium, no more than 0.03 µg/mL; in the data set with Proteus vulgaris it was no more than 0.03 µg/mL; against Staphylococcus aureus [9], no more than 0.03 µg/mL; in the data set with Staphylococcus aureus [10] it was 1 µg/mL (≈ 1.4 µM). In addition, the MIC (in data set [11]; in the data set on Providencia rettgeri; against Enterococcus faecalis; against Enterobacter cloacae; with Escherichia coli) was no more than 0.03 µg/mL each time. The CC50 – broadly, the concentration at which the toxic effect on the cells reaches its halfway point – in data set [12] is 32 µg/mL (≈ 44.9 µM).

Take `COc1cc(/C=C/c2ccc(O)cc2)cc(OC)c1` [PTEROSTILBENE]: inhibition of growth in the data set on Staphylococcus aureus [13] (MIC) required 41 µg/mL (≈ 160 µM). The MBC (as a rule, the smallest concentration meeting the test's criterion for killing) in the data set on Staphylococcus aureus [14] stood at 41 µg/mL (≈ 160 µM).

On to `O=C(N[C@H](CO)[C@H](O)c1ccc([N+](=O)[O-])cc1)C(Cl)Cl` [CHLORAMPHENICOL], for which, in the data set on Staphylococcus aureus [15], the MIC turned out to be 11.6 µg/mL (≈ 35.9 µM).

`COc1cc(/C=C/c2ccc(OCc3cn(-c4ccc(C(=O)O)cc4)nn3)cc2)cc(OC)c1` displayed an MIC against Staphylococcus aureus [13] of 1.2 µg/mL (≈ 2.62 µM). In the data set with Staphylococcus aureus [14], this compound showed an MBC of 19.5 µg/mL (≈ 42.6 µM).

Turning to `NC[C@H]1O[C@@H](O[C@@H](Cn2cc(CCCCCCCCCCOc3ccc(C(=O)c4ccccc4)cc3)nn2)[C@H]2O[C@@H](n3ccc(=O)[nH]c3=O)[C@H](O)[C@@H]2O)[C@H](O)[C@@H]1O.O=C(O)C(F)(F)F`, in the data set on Staphylococcus aureus [16], the Ratio was found to be 1. This compound displayed an MIC with Staphylococcus aureus [17] of 8 µg/mL.

Consider `CC(C)C[C@H](C(=O)N[C@@H]1Cc2ccc(c(Cl)c2)Oc2cc3cc(c2O[C@@H]2O[C@H](CO)[C@@H](O)[C@H](O)[C@H]2O[C@H]2C[C@](C)(NCCCCCCCc4ccccc4)[C@H](O)[C@H](C)O2)Oc2ccc(cc2Cl)[C@@H](O)[C@@H]2NC(=O)[C@H](NC(=O)[C@@H]3NC(=O)[C@H](CC(=O)O)NC1=O)c1ccc(O)c(c1)-c1c(O)cc(O)cc1[C@H](C(=O)O)NC2=O)n1cc(COCCOCCOCc2cn([C@H](CC(C)C)C(=O)N[C@@H]3Cc4ccc(c(Cl)c4)Oc4cc5cc(c4O[C@@H]4O[C@H](CO)[C@@H](O)[C@H](O)[C@H]4O[C@H]4C[C@](C)(NCCCCCCCc6ccccc6)[C@H](O)[C@H](C)O4)Oc4ccc(cc4Cl)[C@@H](O)[C@@H]4NC(=O)[C@H](NC(=O)[C@@H]5NC(=O)[C@H](CC(=O)O)NC3=O)c3ccc(O)c(c3)-c3c(O)cc(O)cc3[C@H](C(=O)O)NC4=O)nn2)nn1`, for which the MIC against Staphylococcus aureus [18] stood at 12.5 µg/mL (≈ 3.65 µM); in the data set with Enterococcus [19], 12.5 µg/mL (≈ 3.65 µM); in the data set on Enterococcus [20], 25 µg/mL (≈ 7.3 µM); against Staphylococcus aureus [21], 6.25 µg/mL (≈ 1.83 µM).

In the case of `CC(C)C[C@H](C(=O)N[C@@H]1Cc2ccc(c(Cl)c2)Oc2cc3cc(c2O[C@@H]2O[C@H](CO)[C@@H](O)[C@H](O)[C@H]2O[C@H]2C[C@](C)(NCCCCCCCc4ccccc4)[C@H](O)[C@H](C)O2)Oc2ccc(cc2Cl)[C@@H](O)[C@@H]2NC(=O)[C@H](NC(=O)[C@@H]3NC(=O)[C@H](CC(=O)O)NC1=O)c1ccc(O)c(c1)-c1c(O)cc(O)cc1[C@H](C(=O)O)NC2=O)n1cc(COCCCCCCOCc2cn([C@H](CC(C)C)C(=O)N[C@@H]3Cc4ccc(c(Cl)c4)Oc4cc5cc(c4O[C@@H]4O[C@H](CO)[C@@H](O)[C@H](O)[C@H]4O[C@H]4C[C@](C)(NCCCCCCCc6ccccc6)[C@H](O)[C@H](C)O4)Oc4ccc(cc4Cl)[C@@H](O)[C@@H]4NC(=O)[C@H](NC(=O)[C@@H]5NC(=O)[C@H](CC(=O)O)NC3=O)c3ccc(O)c(c3)-c3c(O)cc(O)cc3[C@H](C(=O)O)NC4=O)nn2)nn1`, the MIC against Staphylococcus aureus [18] came to 12.5 µg/mL (≈ 3.64 µM); against Enterococcus [19] it was 12.5 µg/mL (≈ 3.64 µM); against Enterococcus [20], 25 µg/mL (≈ 7.28 µM); with Staphylococcus aureus [21], 12.5 µg/mL (≈ 3.64 µM).

As to `Cc1ccc(-n2cc(Cn3c4ccccc4c(=O)c4cc(C)ccc43)nn2)cc1`, in the data set with Staphylococcus aureus [15], the MIC turned out to be 19.6 µg/mL (≈ 51.5 µM).
